Values after ≈ are worked out from the molar mass of the structure shown. Blank lines part the entries; values can stand above or below the molecule they belong to.
Key:
HeLa [1] = experiment: Antitumor activity against human HeLa cells assessed as cell growth inhibition incubated for 72 hrs by MTT assay; assay type: functional, cell-based
NCI-H1299 = experiment: Antiproliferative activity against human H1299 cells incubated for 72 hrs by absorbance based assay; assay type: functional, cell-based; settings: NCI-H1299, 72 h
HeLa [2] = experiment: Antiproliferative activity against human HeLa cells incubated for 72 hrs by absorbance based assay; assay type: functional, cell-based
PANC-1 [3] = experiment: Antitumor activity against human PANC-1; assay type: functional, cell-based; settings: pooled result: one value given for 3 cell lines, strains, targets or settings
HeLa [4] = experiment: Antitumor activity against human HeLa cells; assay type: functional, cell-based
PANC-1 [5] = experiment: Antitumor activity against human PANC-1 cells assessed as cell growth inhibition incubated for 48 hrs by CCK-8 assay; assay type: functional, cell-based; settings: PANC-1, 48 h
SW1990 = experiment: Antitumor activity against human SW1990 cells assessed as cell growth inhibition incubated for 48 hrs by CCK-8 assay; assay type: functional, cell-based; settings: SW1990, 48 h
L5178Y = experiment: Cytotoxicity against mouse L5178Y; assay type: toxicity, cell-based
MCF7 [6] = experiment: Antitumor activity against human MCF7 cells assessed as cell growth inhibition incubated for 3 days; assay type: functional, cell-based; settings: MCF7, 72 h
HeLa [7] = experiment: Antitumor activity against human HeLa cells assessed as cell growth inhibition incubated for 3 days; assay type: functional, cell-based; settings: 72 h
C-33-A = experiment: Antitumor activity against human C33A cells assessed as cell growth inhibition incubated for 3 days; assay type: functional, cell-based; settings: 72 h
COLO 201 = experiment: Antitumor activity against human COL0201 cells assessed as cell growth inhibition incubated for 3 days; assay type: functional, cell-based; settings: COLO 201, 72 h
HepG2 = experiment: Antitumor activity against human HepG2 incubated for 48 hrs by MTT assay; assay type: functional, cell-based; settings: HepG2, 48 h
MCF7 [8] = experiment: Antitumor activity against human MCF-7 incubated for 48 hrs by MTT assay; assay type: functional, cell-based; settings: MCF7, 48 h

SMILES: CO[C@H]1/C=C/C=C/C=C/C[C@H](OC(=O)[C@@H](C)NC(=O)C2CCCCC2)[C@H](C)[C@@H](O)/C(C)=C\CCC2=C(SC)C(=O)C=C(NC(=O)C1)C2=O
IC50 (HeLa [1]): 55 nM

SMILES: C/C1=C/CCc2c(O)c(cc3c2SCC(=O)N3)NC(=O)C[C@@H](O)/C=C/C=C/C=C/C[C@H](O)[C@H](C)[C@H]1O
IC50 (NCI-H1299): > 10000 nM
IC50 (HeLa [2]): 10000 nM

SMILES: CO[C@H]1/C=C/C=C/C=C/C[C@H](OC(=O)[C@@H](C)NC(=O)C2CCCCC2)[C@H](C)[C@@H](O)/C(C)=C\CCc2cc(O)c(SC)c(c2O)NC(=O)C1
IC50 (HeLa [4]): 15 nM

SMILES: CO[C@@H]1CC(=O)Nc2c(O)c3cc4c2[C@@H](/C=C/C=C/C[C@H](OC(=O)[C@@H](C)NC(=O)C2CCCCC2)[C@H](C)[C@@H](O)/C(C)=C\CC3)[C@H]1O4
IC50 (PANC-1 [5]): 4730 nM
IC50 (SW1990): 4730 nM

SMILES: CO[C@@H]1CC(=O)Nc2c(O)c3cc4c2[C@H](/C=C/C=C/C[C@H](OC(=O)[C@@H](C)NC(=O)C2=CCCCC2)[C@H](C)[C@@H](O)/C(C)=C\CC3)[C@H]1O4
IC50 (PANC-1 [5]): > 10000 nM
IC50 (SW1990): > 10000 nM

SMILES: CO[C@H]1/C=C/C=C/C=C/C[C@H](OC(=O)[C@@H](C)NC(=O)C2CCCC(O)C2)[C@H](C)[C@@H](O)/C(C)=C\CCc2cc(O)cc(c2O)NC(=O)C1 (some centres not stated)
MIC (L5178Y): 4.89 µM (≈ 3.2 µg/mL)

SMILES: CO[C@@H]1CC(=O)Nc2c(O)c3cc4c2[C@H](/C=C/C=C\C[C@H](OC(=O)[C@@H](C)NC(=O)C2CCCCC2)[C@H](C)[C@@H](O)/C(C)=C\CC3)[C@H]1O4
IC50 (PANC-1 [5]): 6900 nM
IC50 (SW1990): 6900 nM

SMILES: CO[C@H]1/C=C/C=C/C=C/C[C@H](OC(=O)[C@@H](C)NC(=O)C2CCCCC2)[C@H](C)[C@@H](O)/C(C)=C\CCc2c(O)c(cc(O)c2SC)NC(=O)C1
IC50 (HeLa [1]): 200 nM

SMILES: CO[C@H]1/C=C/C=C/C=C/C[C@H](O)[C@H](C)[C@@H](O)/C(C)=C\CCC2=CC(=O)C=C(NC(=O)C1)C2=O
MIC (L5178Y): > 10 µM

SMILES: C/C1=C/CCc2cc(O)cc(c2)NC(=O)C[C@@H](O)/C=C/C=C/C=C/C[C@H](O)[C@H](C)[C@H]1O
IC50 (NCI-H1299): > 10000 nM
IC50 (HeLa [2]): 10000 nM

SMILES: CO[C@H]1/C=C/C=C/C=C/C[C@@H]2O[C@@](C)([C@H](O)[C@H]2C)[C@H]2CCC3=C(S2)C(=O)C=C(NC(=O)C1)C3=O
IC50 (NCI-H1299): > 10000 nM
IC50 (HeLa [2]): 10000 nM

SMILES: CO[C@H]1/C=C/C=C/C=C/C[C@H](O)[C@H](C)[C@@H](O)/C(C)=C\CCc2cc(O)cc(c2O)NC(=O)C1
MIC (L5178Y): 7 µM (≈ 3.2 µg/mL)

SMILES: C/C1=C/CCc2cc(O)cc(c2)NC(=O)C[C@@H](O)/C=C/C=C/C=C/C[C@H](O)C[C@H]1O
IC50 (HeLa [1]): > 10000 nM

SMILES: CO[C@H]1/C=C/C=C/C=C/C[C@H](OC(=O)[C@@H](C)NC(=O)C2CC2)[C@H](C)[C@@H](O)/C(C)=C\CCc2cc(O)cc(c2)NC(=O)C1
IC50 (HepG2): > 10000 nM
IC50 (MCF7 [8]): > 10000 nM

More lines, main results first:

IC50 (HeLa [1]): 100 nM
SMILES: CO[C@H]1/C=C/C=C/C=C/C[C@H](OC(=O)[C@@H](C)NC(=O)C2CCCCC2)[C@H](C)[C@@H](O)/C(C)=C\CCC2=CC(=O)C(SC)=C(NC(=O)C1)C2=O

IC50 (PANC-1 [3]): 340 nM
SMILES: CC[C@H](C)C(=O)N[C@H](C)C(=O)O[C@H]1C/C=C/C=C/C=C/[C@H](OC)CC(=O)Nc2cc(O)cc(c2)CC/C=C(/C)[C@H](O)[C@H]1C

IC50 (HeLa [1]): > 10000 nM
SMILES: CO[C@H]1/C=C/C=C/C=C/C[C@H](OC(=O)[C@@H](C)NC(=O)C2CCCCC2)[C@H](C)C(=O)/C(C)=C\CCC2=CC(=O)C=C(NC(=O)C1)C2=O

IC50 (MCF7 [6]): 18 nM
IC50 (HeLa [7]): 18 nM
IC50 (COLO 201): 18 nM
SMILES: CO[C@H]1/C=C/C=C/C=C/C[C@H](OC(=O)[C@@H](C)NC(=O)C2CCCCC2)[C@H](C)[C@@H](O)/C(C)=C\CCc2c(O)c(cc3c2SCC(=O)N3)NC(=O)C1
IC50 (C-33-A): 18 nM

IC50 (HepG2): ≥ 6810 nM
IC50 (MCF7 [8]): ≥ 6810 nM
SMILES: CO[C@H]1/C=C/C=C/C=C/C[C@H](OC(=O)[C@@H](C)NC(=O)C2CCCC2)[C@H](C)[C@@H](O)/C(C)=C\CCc2cc(O)cc(c2)NC(=O)C1

IC50 (MCF7 [6]): 28 nM
IC50 (HeLa [7]): 28 nM
IC50 (COLO 201): 28 nM
SMILES: CO[C@H]1/C=C/C=C/C=C/C[C@H](OC(=O)[C@@H](C)NC(=O)C2=CCCCC2)[C@H](C)[C@@H](O)/C(C)=C\CCc2c(O)c(cc3c2SCC(=O)N3)NC(=O)C1
IC50 (C-33-A): 28 nM

IC50 (HeLa [1]): 860 nM
SMILES: CO[C@H]1/C=C/C=C/C=C/C[C@H](OC(=O)[C@@H](C)NC(=O)C2CCCCC2)[C@H](C)[C@@H](O)/C=C\CCc2cc(O)cc(c2)NC(=O)C1

IC50 (PANC-1 [5]): > 10000 nM
IC50 (SW1990): > 10000 nM
SMILES: CO[C@@H]1CC(=O)Nc2c(O)c3cc4c2[C@H](/C=C/C=C/C[C@H](OC(=O)[C@@H](C)NC(=O)CCC(C)C)[C@H](C)[C@@H](O)/C(C)=C\CC3)[C@H]1O4

Reference: ChEMBL document CHEMBL5247589, “Natural occurrence, bioactivity, and biosynthesis of triene-ansamycins” (Eur J Med Chem, 2022)
